The source made the active and inactive calls. The rule behind the calls is not given here.

In the test the test system is Schistosoma mansoni. Description: In vitro activity screen on S. mansoni schistosomula at 10 uM. Compound-induced effects were assessed by quantifying larva motility and phenotype using Roboworm. In kind it is functional, organism-based. Set-up: test concentration 10 uM, temperature 37 degree C, time incubation 72 h. Conditions: Puerto Rican.
For the compound `O=C(O)c1ccc(-c2nc(NCc3ccc4c(c3)OCO4)c3c4c(oc3n2)CCCC4)cc1`, the In vitro activity entry was “inactive”.
In the case of `CCC(C)c1cc(C)c(C(=O)N=C(N)N)cc1S(C)(=O)=O` (configuration not stated) it was “inactive”; in that of `CCCc1nn(C)c2c(NCc3ccc(OC)c(Cl)c3)nc(CCCCC(=O)NS(C)(=O)=O)nc12`, “inactive”.
For the compound `COCc1cc(-c2nc(-c3cc(F)cc(CN(C)CC(=O)O)c3)no2)ccc1-c1cccc(F)c1C`, the In vitro activity result is “inactive”.
Turning to `Cc1cc(-c2ccc[nH]2)c(S(C)(=O)=O)cc1C(=O)N=C(N)N`, the In vitro activity entry was “inactive”.
As to `C=CC(C)c1cc(C)c(C(=O)N=C(N)N)cc1S(C)(=O)=O` (configuration not stated), the In vitro activity result is “inactive”.
In the case of `O=C(O)[C@H]1CC[C@H](c2nc(NCc3ccc4c(c3)OCO4)c3c4c(sc3n2)CCCC4)CC1` it was “inactive”; in that of `CCNC1=N[C@@H]2[C@@H](O)[C@H](O)[C@@H](Cn3cc(COc4ccc(Cl)cc4)nn3)O[C@@H]2S1`, “inactive”.
For the compound `CCCCCCN(Cc1ccc(C#Cc2ccc(CCCC)cc2)cc1)C(=O)c1ccc(O)c(C(=O)O)c1`, the In vitro activity result is “inactive”.
In the case of `Cc1csc(N2CCN(C(C)c3ccc4c(c3)OCO4)CC2)n1` (configuration not stated) it was “inactive”.
On to `CO[C@@H]1COCC[C@@H]1N1CCC2(CC1)OC(=O)C(C)=C2C(=O)N1CCc2ccc(C(F)(F)F)cc2C1`, for which the In vitro activity entry was “inactive”.
Consider `COc1cc(C(=O)NCc2cn(Cc3ccc(Cl)c(Cl)c3)nn2)ccc1-c1ccnc(C)c1`, for which the In vitro activity result was “inactive”.
On to `O=C(O)c1ccc(-c2nc(NCc3ccc4c(c3)OCO4)c3cc(Cl)sc3n2)cc1`, for which the In vitro activity entry was “inactive”.
In the case of `Cc1cc2c(NCc3ccc4c(c3)OCO4)nc(-c3ccc(C(=O)O)cc3)nc2s1` it was “inactive”; in that of `CC1(C)C=C(n2ccccc2=O)c2cc(C#N)ccc2O1`, “inactive”.
As for `COc1cc(C(=O)Nc2cn(Cc3ccc(Cl)cc3)nn2)ccc1-n1cnc(C)c1`, the In vitro activity result is “inactive”.
In the case of `COc1ccc(C2=NN(C(=O)c3ccc(NC(=O)c4ccncc4)cc3)CCC2)cc1OC1CCCC1` it was “inactive”; in that of `CCCc1nn(C)c2c(=O)[nH]c(-c3cc(C(=O)N=C(N)N)ccc3OCC)nc12`, “inactive”.
`Cc1cc2c(cc1C(=O)N=C(N)N)S(=O)(=O)C(C)(C)/C2=N\O`: the In vitro activity entry is “inactive”.
In the case of `O=C(O)c1ccc(-c2nc(NCc3cccnc3)c3c(n2)sc2ccccc23)cc1` it was “inactive”; in that of `Cc1c(O)nc(N)nc1-c1cc2ccccc2o1`, “inactive”; in that of `CCOc1cc(CCNC(=O)C[C@H]2S[C@@H](c3ccc(C#Cc4ccccc4)cc3)N(c3cccc(C(N)=O)c3)C2=O)ccc1O`, “inactive”.
With `CC(c1ccc2c(c1)CCC2)N1CCN(c2ccccc2)CC1` (configuration not stated), the In vitro activity result is “inactive”.
In the case of `CCOC(=O)Nc1ccc(C(=O)N2CCCC(c3ccc(OC)c(OCC)c3)=N2)cc1` it was “inactive”.
In the case of `CCSc1cc(C)c(C(=O)N=C(N)N)cc1S(C)(=O)=O` it was “inactive”.
Then `CCC(C)Oc1ccc(-c2nc(-c3ccc([C@@H](C)NCC(=O)O)cc3)no2)cc1COC` (some centres not stated), with “inactive”; and `Cc1nc2c3c(nn2c(C)c1Cl)CN(C(=O)c1ccc(F)cc1OC1C[C@H]2COC[C@H](C1)N2C)C3` (some centres not stated), with “inactive”; and `C=CCSc1ccc(-c2nc3ccncc3[nH]2)c(OC)c1`, with “inactive”.
For the compound `COc1ccc(OCC(N)=O)cc1-c1cn2cc(C(=O)NCCc3c(OC)cccc3OC)sc2n1`, the In vitro activity result was “inactive”.
In the case of `Cn1cc(-c2cnc3[nH]cc(-c4cn(Cc5cccc(F)c5F)nn4)c3c2)cn1` it was “inactive”; in that of `CC1(C)Oc2ccc(C#N)cc2[C@@H](n2ccccc2=O)[C@@H]1O`, “inactive”; in that of `CCCCc1nc2ccn(CC(=O)N(C)C)c(=O)c2n1Cc1ccc(-c2ccccc2-c2nnn[nH]2)cc1`, “inactive”.
As to `CC1=C(C(=O)N2CCc3ccc(C(F)(F)F)cc3C2)C2(CCN(C(C)C)CC2)OC1=O`, the In vitro activity result was “inactive”.
Then `COc1ccc(OCc2nn[nH]n2)cc1-c1cn2cc(C(=O)NCCc3c(OC)cccc3OC)sc2n1`, with “inactive”; and `Cn1c2ccccc2c2c(NCc3ccc4c(c3)OCO4)nc(-c3ccc(C(=O)O)cc3)nc21`, with “inactive”; and `Cc1ccccc1-c1ccc(-c2nc(-c3ccc(CN(C)CCC(=O)O)c(F)c3)no2)cc1OCC1CC1`, with “inactive”.
Regarding `COCc1cc(-c2nc(-c3ccc(CN(C)CC(=O)O)c(F)c3)no2)ccc1-c1cccc(F)c1C`, the In vitro activity entry is “inactive”.
Consider `Cc1cc(-c2ccccc2)c(S(C)(=O)=O)cc1C(=O)N=C(N)N`, for which the In vitro activity result is “inactive”.
For the compound `COc1ccc(CNc2nc(-c3ccc(CC(=O)O)cc3)nc3sc4c(c23)CCCC4)cc1Cl`, the In vitro activity entry is “inactive”.
On to `Cc1cc(C2CCCC2)c(S(C)(=O)=O)cc1C(=O)N=C(N)N`, for which the In vitro activity entry was “inactive”.
With `CCC(CC)N1CCC2(CC1)OC(=O)C(C)=C2C(=O)N1CCc2ncc(C(F)(F)F)cc2C1`, the In vitro activity entry was “inactive”.
In the case of `CC1=C(C(=O)N2CCN(c3cccc(C(F)(F)F)c3)CC2)C2(CCN(CCc3ccccc3)CC2)OC1=O` it was “inactive”; in that of `COc1nc(/C=C/c2nc3n(n2)CCC[C@@H]3c2ccccc2C(F)(F)F)ccc1-n1cnc(C)c1`, “inactive”.
In the case of `CCCc1nn(C)c2c(=O)[nH]c(-c3cc(S(=O)(=O)Oc4ccc(=O)[nH]n4)ccc3OCC)nc12` it was “inactive”; in that of `O=C(O)c1ccc(-c2nc(NCc3ccc4c(c3)OCO4)c3c4c(sc3n2)CCCC4)cc1`, “inactive”.
Regarding `CC1=C(C(=O)N2CCc3ccc(C(F)(F)F)cc3C2)C2(CCN(C3CCCCC3)CC2)OC1=O`, the In vitro activity result is “inactive”.
Then `Cc1c(C(=O)N=C(N)N)cc(-n2cccc2)c(C)c1C`, with “inactive”; and `CC1=C(C(=O)N2CCc3ccc(C(F)(F)F)cc3C2)C2(CCN(CC3CCOC3)CC2)OC1=O` (configuration not stated), with “inactive”.
For `O=C(O)CN1C(=O)[C@@]2(NC(=O)N(Cc3cc(Cl)ccc3F)C2=O)c2cc(Cl)ccc21`, the In vitro activity result is “inactive”.
`c1cnc(N2CCN(Cc3cncc(-c4ccsc4)c3)CC2)nc1`: the In vitro activity result is “inactive”.
Then `CCN1CCC2(CC1)OC(=O)C(C)=C2C(=O)N1C[C@@H]2C[C@H]1CN2c1cc(C(F)(F)F)ccn1`, with “inactive”; and `CCN1CCC2(CC1)OC(=O)C(C)=C2C(=O)N1C[C@@H]2C[C@H]1CN2c1nccc(C(F)(F)F)n1`, with “inactive”; and `COc1ccc(CNc2nc(-c3ccc(S(=O)(=O)O)cc3)nc3sc4c(c23)CCCC4)cc1Cl`, with “inactive”.
Then `O=C(O)c1ccc(C(=O)Nc2[nH]c3ccccc3c2C(=O)NCc2ccc3c(c2)OCO3)cc1`, with “inactive”; and `O=C(O)C1CCN(c2nc(NCc3ccc4c(c3)OCO4)c3c4c(sc3n2)CCCC4)CC1`, with “inactive”.
For `CC1=C(C(=O)N2COc3ccc(C(F)(F)F)cc3C2)C2(CCN(C(C)C)CC2)OC1=O`, the In vitro activity result was “inactive”.
With `Cc1cc(Oc2cccnc2)c([N+](=O)[O-])cc1C(=O)N=C(N)N`, the In vitro activity entry is “inactive”.
`CCOC(=O)c1ccc(C2=CSC3=Nc4ccccc4CCN23)cc1`: the In vitro activity result was “inactive”.
In the case of `CCc1cc(C(=O)NCc2ccc(OC)c(Cl)c2)c(NC(=O)c2ccc(C(=O)O)cc2)s1` it was “inactive”.
As to `COc1ccc(N2C[C@H](CN3CCC(O)(c4ccc5c(c4)OCO5)CC3)OC2=O)cc1`, the In vitro activity entry is “inactive”.
In the case of `CCc1cc(C(=O)NCc2ccc3c(c2)OCO3)c(NC(=O)c2ccc(C(=O)O)cc2)s1` it was “inactive”; in that of `CCCc1nn(C)c2c(=O)[nH]c(-c3cc(S(=O)(=O)Oc4ccncc4)ccc3OCC)nc12`, “inactive”.
Take `O=C(c1cc2c(s1)CC(C(=O)O)C2)c1ccccc1Cl` (configuration not stated): the In vitro activity result was “inactive”.
Take `COCc1cc(-c2nc(-c3cc(F)cc(CN(C)CC(=O)O)c3)no2)ccc1-c1ccccc1F`: the In vitro activity result is “inactive”.
For the compound `COc1ccc(CCNC(=O)c2cn3cc(-c4cc(OCCCO)ccc4OC)nc3s2)c(OCCCO)c1`, the In vitro activity entry is “inactive”.
On to `CC1=C(C(=O)N2CCN(c3cccc(C(F)(F)F)c3)CC2)C2(CCN(C(C)C)CC2)OC1=O`, for which the In vitro activity result was “inactive”.
In the case of `CCC(C)Oc1ccc(-c2nc(-c3cc(F)cc(CN(C)CC(=O)O)c3)no2)cc1COC` (configuration not stated) it was “inactive”.
In the case of `O=C(O)c1ccc(C(=O)Nc2sc3c(c2C(=O)NCc2ccc4c(c2)OCO4)CCCC3)cc1` it was “inactive”; in that of `CN(C)c1nc2c(s1)CCc1[nH]c(=O)c(C#N)cc1-2`, “inactive”.
As to `Cc1cc(-n2cccc2)c(S(C)(=O)=O)cc1C(=O)N=C(N)N`, the In vitro activity entry was “inactive”.
As to `C[C@H]1CCCCN1c1ccc(-c2nc(-c3cccc(CN(C)CC(=O)O)c3)no2)cc1C(F)(F)F`, the In vitro activity result is “inactive”.
Then `COc1cc(OC)c(CCNC(=O)c2cn3cc(-c4cc(OCC(N)=O)ccc4OC)nc3s2)c(OC)c1`, with “inactive”; and `COc1cc(C(=O)Nc2nc(Nc3cccc(C(F)(F)F)c3)n(C)n2)ccc1-n1cnc(C)c1`, with “inactive”.
Then `CC1=C(C(=O)N2CCc3ccc(C(F)(F)F)cc3C2)C2(CCN(C)CC2)OC1=O`, with “inactive”; and `CCS(=O)(=O)c1cc(C)c(C(=O)N=C(N)N)cc1S(C)(=O)=O`, with “inactive”; and `COc1ccc(CNc2nc(-c3ccc(C(=O)O)nc3)nc3sc4c(c23)CCCC4)cc1Cl`, with “inactive”.
In the case of `CC1=C(C(=O)N2CCc3ncc(C(F)(F)F)cc3C2)C2(CCN(C3CCC(O)CC3)CC2)OC1=O` (configuration not stated) it was “inactive”.

Values taken from ChEMBL document CHEMBL5441142, “Probing the Merck KGaA Open Global health library for novel starting points for anti-schistosomal drug discovery” (2024).
